pIC50: −log10 of the molar value.
How the values were obtained:
Assay in all cases: cells
NCI-H1299 = conditions: Homo sapiens, NCI-H1299, 48 h
Description: Antitumor activity against human NCI-H1299 cells assessed as inhibition of cell viability incubated for 48 hrs by MTT assay

NCI-H460 = conditions: Homo sapiens, NCI-H460, 48 h
Description: Antitumor activity against human NCI-H460 cells assessed as inhibition of cell viability incubated for 48 hrs by MTT assay

A549 = conditions: Homo sapiens, A549, 48 h
Description: Antitumor activity against human A549 cells assessed as inhibition of cell viability incubated for 48 hrs by MTT assay

Row | SMILES | pIC50 (NCI-H1299) | pIC50 (NCI-H460) | pIC50 (A549)
1 | CN(C)C(=O)c1cc2cnc(Nc3ccc(N4CCN(C(=O)COc5ccc(-c6nc7ccc(F)cc7c(=O)[nH]6)cc5)CC4)cn3)nc2n1C1CCCC1 | 5.02 | 4.66 | 5.49
2 | COc1cc(OC)c2c(=O)[nH]c(-c3ccc(OCC(=O)N4CCN(c5ccc(Nc6ncc7cc(C(=O)N(C)C)n(C8CCCC8)c7n6)nc5)CC4)cc3)nc2c1 | 5.11 | 4.73 | 4.85
3 | CN(C)C(=O)c1cc2cnc(Nc3ccc(N4CCN(C(=O)COc5c(Br)cc(-c6nc7ccc(F)cc7c(=O)[nH]6)cc5Br)CC4)cn3)nc2n1C1CCCC1 | 4.79 | < 4.40 | 4.61
4 | Cc1ccc2c(=O)[nH]c(-c3ccc(OCC(=O)N4CCN(c5ccc(Nc6ncc7cc(C(=O)N(C)C)n(C8CCCC8)c7n6)nc5)CC4)cc3)nc2c1 | < 4.40 | 4.49 | < 4.40
5 | COc1cc(OC)c2c(=O)[nH]c(-c3cc(C)c(OCCCCC(=O)NNc4ncc5cc(C(=O)N(C)C)n(C6CCCC6)c5n4)c(C)c3)nc2c1 | 4.41 | 4.49 | < 4.40
6 | CN(C)C(=O)c1cc2cnc(Nc3ccc(N4CCN(C(=O)COc5ccc(-c6nc7cc(C(F)(F)F)ccc7c(=O)[nH]6)cc5)CC4)cn3)nc2n1C1CCCC1 | 4.68 | 4.46 | < 4.40
7 | COc1cc(OC)c2c(=O)[nH]c(-c3cc(C)c(OCCCC(=O)NNc4ncc5cc(C(=O)N(C)C)n(C6CCCC6)c5n4)c(C)c3)nc2c1 | 4.84 | 4.59 | 4.49
8 | CN(C)C(=O)c1cc2cnc(Nc3ccc(N4CCN(C(=O)COc5ccc(-c6nc7cc(Cl)ccc7c(=O)[nH]6)cc5)CC4)cn3)nc2n1C1CCCC1 | 5.23 | < 4.40 | < 4.40
9 | CN(C)C(=O)c1cc2cnc(Nc3ccc(N4CCN(C(=O)COc5ccc(-c6nc7ccccc7c(=O)[nH]6)cc5)CC4)cn3)nc2n1C1CCCC1 | 5.35 | 4.73 | 4.55
10 | CN(C)C(=O)c1cc2cnc(Nc3ccc(N4CCN(C(=O)COc5ccc(-c6nc7ccc(F)cc7c(=O)[nH]6)cc5F)CC4)cn3)nc2n1C1CCCC1 | < 4.40 | < 4.40 | < 4.40
11 | CN(C)C(=O)c1cc2cnc(Nc3ccc(N4CCN(C(=O)COc5ccc(-c6nc7ccc(Cl)cc7c(=O)[nH]6)cc5)CC4)cn3)nc2n1C1CCCC1 | 4.41 | < 4.40 | 4.51
12 | Cc1cccc2c(=O)[nH]c(-c3ccc(OCC(=O)N4CCN(c5ccc(Nc6ncc7cc(C(=O)N(C)C)n(C8CCCC8)c7n6)nc5)CC4)cc3)nc12 | 4.77 | < 4.40 | < 4.40
